# Measurements taken from patent US6627734B1 (dated 2003).
# Test system: expressed full length clones containing these insertions (KOR-3a, KOR-3b, KOR-3c)
# Assay: Preliminary binding of [3H]naloxone benzoylhydrazone to expressed full length KOR-3 splice variant clones
# Parameters: species or system mouse
# Settings: preliminary studies; expressed full length clones with mini-exon insertions (KOR-3a, KOR-3b, KOR-3c); radioligand
smiles,measurement,value
C=CCN1CC[C@]23c4c5ccc(O)c4O[C@H]2/C(=N/NC(=O)c2ccccc2)CC[C@@]3(O)[C@H]1C5 [[^3H]naloxone benzolhydrazone],binding of the kappa3 ligand by the expressed full length clones,quite well
